Experimental data published in the CombiSolv-Exp solvation set (Vermeire and Green 2021).

Assay: solvent given as SMILES

C1CCCCC1
Conditions | solvation free energy, 298 K [kcal/mol]
in BrC(Br)C(Br)Br | -3.42
in Brc1cccc2ccccc12 | -3.66
in Brc1ccccc1 | -4.07
in C1=Cc2ccccc2C1 | -3.92
in C1CCC(C2CCCCC2)CC1 | -4.09
in C1CCNC1 | -4.04
in C1CCNCC1 | -4.32
in C1CCOC1 | -4.23
in C1COCCO1 | -3.66
in C=CCCCC | -4.22
in C=CCCCCCC | -4.18
in C=CCCCCCCCC | -4.12
in C=CCCCCCCCCCCCCCC | -3.89
in CC1CCS(=O)(=O)C1 | -2.73
in CC1COC(=O)O1 | -2.65
in CC#N | -3.03
in CC(=O)CC(C)C | -3.92
in CC(=O)O | -3.23
in CC(=O)OCc1ccccc1 | -3.53
in CC(=O)c1ccccc1 | -3.52
in CC(C)(C)O | -3.67
in CC(C)=O | -3.58
in CC(C)CC(C)(C)C | -4.15
in CC(C)CCCC(C)CCCC(C)CCCCC(C)CCCC(C)CCCC(C)C | -3.87
in CC(C)CCO | -3.77
in CC(C)CO | -3.93
in CC(C)O | -3.52
in CC(C)OC(C)C | -4.18
in CCBr | -4.31
in CCC#N | -3.57
in CCC(C)(C)OC | -4.3
in CCC(C)=O | -3.79
in CCC(C)O | -3.64
in CCCC#N | -3.45
in CCCC(=O)OCC | -3.93
in CCCC(C)=O | -3.82
in CCCCC | -4.25
in CCCCC#N | -3.58
in CCCCC(CC)COC(=O)CCCCC(=O)OCC(CC)CCCC | -3.77
in CCCCC(CC)COC(=O)c1ccccc1C(=O)OCC(CC)CCCC | -3.6
in CCCCCC | -4.24
in CCCCCC#N | -3.66
in CCCCCC(C)=O | -3.86
in CCCCCCC | -4.2
in CCCCCCCC | -4.18
in CCCCCCCCC | -4.13
in CCCCCCCCC=CCCCCCCCC(=O)OCC(COC(=O)CCCCCCCC=CCCCCCCCC)OC(=O)CCCCCCCC=CCCCCCCCC | -3.86
in CCCCCCCCCC | -4.11
in CCCCCCCCCCCC | -4.03
in CCCCCCCCCCCCCC | -3.91
in CCCCCCCCCCCCCCCC | -3.97
in CCCCCCCCCCCCO | -3.7
in CCCCCCCCCCO | -3.42
in CCCCCCCCN(CCCCCCCC)CCCCCCCC | -3.86
in CCCCCCCCO | -3.73
in CCCCCCCO | -3.72
in CCCCCCO | -3.75
in CCCCCCOC(C)=O | -3.93
in CCCCCN(CCCCC)CCCCC | -4.01
in CCCCCO | -3.71
in CCCCCl | -4.17
in CCCCN(C=O)CCCC | -3.67
in CCCCN(CCCC)CCCC | -3.92
in CCCCO | -3.7
in CCCCOC | -4.2
in CCCCOC(=O)c1ccccc1C(=O)OCCCC | -3.73
in CCCCOC(C)=O | -3.91
in CCCCOCC | -4.07
in CCCCOCCCC | -4.13
in CCCO | -3.59
in CCCOCCC | -4.12
in CCN1CCCC1=O | -3.39
in CCN(CC)C(C)=O | -3.55
in CCN(CC)CC | -4.23
in CCNC(C)=O | -3.41
in CCNC=O | -3.22
in CCO | -3.5
in CCOC(=O)c1ccccc1C(=O)OCC | -3.24
in CCOC(C)(C)C | -4.17
in CCOC(C)=O | -3.78
in CCOCC | -4.19
in CCOCCO | -3.41
in CCOCCOCCOCC | -3.81
in CCOc1ccccc1 | -3.89
in CN1CCCC1=O | -3.18
in CN1CCCCC1=O | -3.37
in CN1CCN(C)C1=O | -3.07
in CN(C)P(=O)(N(C)C)N(C)C | -3.47
in CNC(C)=O | -3.26
in CNC=O | -2.93
in CO | -3.25
in COC(C)(C)C | -4.16
in COC(C)=O | -3.61
in COCCO | -3.15
in COc1ccccc1 | -3.84
in CS(C)=O | -2.5
in Cc1ccc(C)cc1 | -4.17
in Cc1cccc2ccccc12 | -3.8
in Cc1cccc(O)c1 | -3.42
in Cc1ccccc1 | -4.2
in Cc1ccccn1 | -3.91
in ClC(Cl)(Cl)Cl | -4.44
in ClC(Cl)C(Cl)Cl | -3.76
in ClC(Cl)Cl | -4.33
in ClCCCl | -3.93
in ClCCl | -4.1
in Clc1cccc2ccccc12 | -3.88
in Clc1ccccc1 | -4.22
in FC(F)(F)C(F)(F)C(F)(F)C(F)(F)C(F)(F)C(F)(F)C(F)(F)C(F)(F)F | -2.65
in FC(F)(F)C(F)(F)C(F)(F)C(F)(F)C(F)(F)C(F)(F)F | -2.71
in Fc1ccccc1 | -4.12
in ICI | -3.06
in N#CCCCC#N | -2.17
in N#CCCCCC#N | -2.51
in N#CCCOCCC#N | -2.24
in N#CCc1ccccc1 | -3.16
in N#Cc1ccccc1 | -3.54
in NC=O | -1.36
in NCCO | -1.69
in NCc1ccccc1 | -3.46
in Nc1ccccc1 | -3.07
in O | 1.22
in O=C1CCCCC1 | -3.85
in O=C1CCCO1 | -2.81
in O=C(O)C(Cl)Cl | -3.29
in O=CN1CCOCC1 | -2.65
in O=Cc1ccco1 | -3.01
in OC1CCCCC1 | -3.69
in OCCCCCO | -2.61
in OCCCCO | -2.53
in OCCCO | -2.19
in OCCO | -1.5
in OCCOCCO | -2.16
in OCCOCCOCCO | -2.26
in OCCOCCOCCOCCO | -2.34
in OCCS | -2.58
in OCCc1ccccc1 | -3.32
in OCc1ccccc1 | -3.23
in OCc1ccco1 | -2.94
in S=C=S | -4.49
in c1ccc2c(c1)CCCC2 | -4.1
in c1ccc2ncccc2c1 | -3.61
in c1ccc(C2CCCCC2)cc1 | -4.03
in c1ccccc1 | -4.23
in c1ccncc1 | -3.75

COC(=O)c1ccc([N+](=O)[O-])cc1
Conditions | solvation free energy, 298 K [kcal/mol]
in CN(C)C=O | -10.8
in O | -6.76

O=C(O)CCCCC(=O)O
Conditions | solvation free energy, 298 K [kcal/mol]
in CC(C)(C)O | -13.7
in CC(C)=O | -13.1
in CC(C)O | -13.5
in CCCCO | -13.2
in CCCO | -13.7
in CCO | -13.7
in CO | -14
in O | -12.9
in O=C1CCCCC1 | -12.9

CCC(CC)CO
Conditions | solvation free energy, 298 K [kcal/mol]
in O | -3.73

CCOCOCC
Conditions | solvation free energy, 298 K [kcal/mol]
in CCCCCl | -4.67
in ClC(Cl)(Cl)Cl | -4.97
in ClCCl | -5.47
in O | -2.96

COc1ccc(C(=O)N(O)c2cccc(Cl)c2)cc1
Conditions | solvation free energy, 298 K [kcal/mol]
in O | -12.8

CCCCCCCC(C)O (configuration not stated)
Conditions | solvation free energy, 298 K [kcal/mol]
in O | -3.57

CCCN(CC1CC1)c1c([N+](=O)[O-])cc(C(F)(F)F)cc1[N+](=O)[O-]
Conditions | solvation free energy, 298 K [kcal/mol]
in O | -2.45

CCC(CC)(CC)CC
Conditions | solvation free energy, 298 K [kcal/mol]
in CCCCCC | -5.88
in CO | -4.3

CC1=CCC2CC1C2(C)C (configuration not stated)
Conditions | solvation free energy, 298 K [kcal/mol]
in O | 0.97

Clc1ccc(Br)cc1
Conditions | solvation free energy, 298 K [kcal/mol]
in CC(C)CO | -6.51
in CCCCOCCCC | -7.08
in COC(C)(C)C | -7.27
in O | -1.61

Cc1cc(C)cc(O)c1
Conditions | solvation free energy, 298 K [kcal/mol]
in CC(C)CC(C)(C)C | -6.48
in CCCCCC | -6.77
in CCCCCCC | -6.71
in CCCCCCCC | -6.69
in O | -6.28

CCOP(=S)(OCC)SCSP(=S)(OCC)OCC
Conditions | solvation free energy, 298 K [kcal/mol]
in O | -6.1

OCCO
Conditions | solvation free energy, 298 K [kcal/mol]
in O | -9.3

Cc1cccc(C)c1O
Conditions | solvation free energy, 298 K [kcal/mol]
in CC(C)CC(C)(C)C | -6.55
in O | -5.26

CCCCCCCCC=O
Conditions | solvation free energy, 298 K [kcal/mol]
in NC=O | -4.37
in O | -2.08

O=Cc1ccccc1O
Conditions | solvation free energy, 298 K [kcal/mol]
in O | -4.71

CCCCCN(C)N=O
Conditions | solvation free energy, 298 K [kcal/mol]
in O | -5.05

CCCC(=O)CCC
Conditions | solvation free energy, 298 K [kcal/mol]
in CCCCOCCCC | -5.6
in CO | -5.77
in O | -2.92
